Measurements: patent US20250340739A1 ([…] SOLUTIONS, priority 2022, published 2025)
Where two headings read alike, the source gives them in different places.

Details: solid state
[1] = amber glass, away from light, t = 1 month
[2] = amber glass, away from light, t = 2 months
[3] = amber glass, away from light, t = 6 months
[4] = amber type II glass, away from light, t0, % area HPLC 240 nm
[5] = amber glass, away from light, t = 5 month
[6] = amber glass, away from light, t = 4 months

Procedure: The elution is carried out by gradient. The mobile phase consists of ammonium formiate buffer 100 mM pH 4.5 (eluent A) and acetonitrile (eluent B). The composition of the mobile phase was modified continuously during the elution process according to the following Table II:

SMILES	ICG purity (HPLC) [4] [%]	Total impurities (HPLC) [4] [%]	ICG purity (HPLC) (t = 8 weeks) [%]	Total impurities (HPLC) (t = 8 weeks) [%]	further results
CC1(C)C(/C=C/C=C/C=C/C=C2\N(CCCCS(=O)(=O)[O-])c3ccc4ccccc4c3C2(C)C)=[N+](CCCCS(=O)(=O)[O-])c2ccc3ccccc3c21.[Na+] [Example 2, Indocyanine green]	99.21	0.79			ICG purity (HPLC) [1]: 99.25%; Total impurities (HPLC) [1]: 0.75%; ICG purity (HPLC) [2]: 99.09%; Total impurities (HPLC) [2]: 0.91%; ICG purity (HPLC) [3]: 99.03%; Total impurities (HPLC) [3]: 0.97%
CC1(C)C(/C=C/C=C/C=C/C=C2\N(CCCCS(=O)(=O)[O-])c3ccc4ccccc4c3C2(C)C)=[N+](CCCCS(=O)(=O)[O-])c2ccc3ccccc3c21.[Na+] [Example 3, Indocyanine green]	98.60	1.40			ICG purity (HPLC) [1]: 98.39%; Total impurities (HPLC) [1]: 1.61%; ICG purity (HPLC) [5]: 97.95%; Total impurities (HPLC) [5]: 2.05%
CC1(C)C(/C=C/C=C/C=C/C=C2\N(CCCCS(=O)(=O)[O-])c3ccc4ccccc4c3C2(C)C)=[N+](CCCCS(=O)(=O)[O-])c2ccc3ccccc3c21.[Na+] [Example 4, Indocyanine green]	95.98	4.02			ICG purity (HPLC) [6]: 94.11%; Total impurities (HPLC) [6]: 5.89%
CC1(C)C(/C=C/C=C/C=C/C=C2\N(CCCCS(=O)(=O)[O-])c3ccc4ccccc4c3C2(C)C)=[N+](CCCCS(=O)(=O)[O-])c2ccc3ccccc3c21.[Na+] [NaBr, Indocyanine green]	99.95	0.05			ICG purity (HPLC) (t = 4 weeks): 99.84%; Total impurities (HPLC) (t = 4 weeks): 0.16%
CC1(C)C(/C=C/C=C/C=C/C=C2\N(CCCCS(=O)(=O)[O-])c3ccc4ccccc4c3C2(C)C)=[N+](CCCCS(=O)(=O)[O-])c2ccc3ccccc3c21.[Na+] [NaOAc, Indocyanine green]	99.95	0.05	99.65	0.35	
CC1(C)C(/C=C/C=C/C=C/C=C2\N(CCCCS(=O)(=O)[O-])c3ccc4ccccc4c3C2(C)C)=[N+](CCCCS(=O)(=O)[O-])c2ccc3ccccc3c21.[Na+] [NaOAsc, Indocyanine green]	99.95	0.05	99.72	0.28	
CC1(C)C(/C=C/C=C/C=C/C=C2\N(CCCCS(=O)(=O)[O-])c3ccc4ccccc4c3C2(C)C)=[N+](CCCCS(=O)(=O)[O-])c2ccc3ccccc3c21.[Na+] [NaOEt, Indocyanine green]	99.58	0.42	99.34	0.66	
